The target of data set [1] is NACHT, LRR and PYD domains-containing protein 3 (Mus musculus) (UniProt Q8R4B8). Kind of data set: Inhibition of NLRP3 inflammasome activation in C57 mouse BMDM cells assessed as reduction in IL-1beta secretion at 5 uM preincubated with LPS for 3 hrs followed by compound addition for 30 mins prior to ATP addition and measured after 30 mins by Western blot analysis. The data set is classed as cell-based. The note with it: time 1.0 hrs.

Data set [2] concerns Mus musculus. The experiment in a line: Anti-inflammatory activity in MSU-induced C57 mouse model of acute peritonitis assessed as reduction in IL-1beta expression preadministered intraperitoneally with compound for 3 days followed by MSU injection and measured after 6 hrs by ELISA. The note with it: dose 5-30 mg/kg, route ip, time 78.0 hrs. In kind it is functional, organism-based.

Data set [3] has as its target NACHT, LRR and PYD domains-containing protein 3 (Mus musculus) (UniProt Q8R4B8). Kind of data set: Inhibition of NLRP3 inflammasome activation in LPS/Nigericin induced C57 mouse BMDM cells assessed as reduction in intracellular NLRP3 expression in cell supernatant at 2.5 to 10 uM preincubated with LPS for 3 hrs followed by compound addition for 30 mins prior to nigericin addition and measured after 30 mins by Western blot analysis. The data set is classed as cell-based. Particulars: dose 2.5-10 µM, time 1.0 hrs.

Data set [4] shares this target. Kind of data set: Inhibition of NLRP3 inflammasome activation in LPS/Nigericin induced C57 mouse BMDM cells assessed as reduction in IL-1beta maturation in cell supernatant at 2.5 to 10 uM preincubated with LPS for 3 hrs followed by compound addition for 30 mins prior to nigericin addition and measured after 30 mins by Western blot analysis. The data set is classed as cell-based. Particulars: dose 2.5-10 µM, time 1.0 hrs.

The subject of data set [5] is Mus musculus. The experiment in a line: Anti-inflammatory activity in MSU-induced C57 mouse model of gouty arthritis assessed as reduction in foot swelling at 10 to 30 mg/kg, ip preadministered with compound for 3 days followed by MSU injection and measured after 24 hrs. In kind it is functional, organism-based. The note with it: dose 10-30 mg/kg, time 4.0 day.
Data set [6] has as its target NACHT, LRR and PYD domains-containing protein 3 (Mus musculus) (UniProt Q8R4B8). Kind of data set: Inhibition of NLRP3 inflammasome activation in C57 mouse BMDM cells assessed as reduction in IL-1beta secretion at 5 uM preincubated with LPS for 3 hrs followed by compound addition for 30 mins prior to MSU addition and measured after 4 hrs by Western blot analysis. The data set is classed as cell-based. Particulars: time 4.5 hrs.

For data set [7], the target named is NLR family CARD domain-containing protein 4 (Mus musculus) (UniProt Q3UP24). The experiment in a line: Inhibition of NLRC4 inflammasome activation in C57 mouse BMDM cells assessed as reduction in IL-1beta secretion at 5 uM preincubated with LPS for 3 hrs followed by Salmonella typhimurium stimulation for 2 hrs by Western blot analysis. In kind it is cell-based.

Data set [8] addresses NACHT, LRR and PYD domains-containing protein 3 (Mus musculus) (UniProt Q8R4B8). Kind of data set: Inhibition of NLRP3 inflammasome assembly in C57 mouse BMDM cells assessed as reduction in higher order complex cross-linking at 2.5 to 10 uM preincubated with LPS for 3 hrs followed by compound addition for 30 mins prior to nigericin addition and measured after 30 mins by ASC oligomerization based blotting analysis. The data set is classed as cell-based. Particulars: dose 2.5-10 µM, time 1.0 hrs.

Data set [9] deals with NLR family CARD domain-containing protein 4 (Mus musculus) (UniProt Q3UP24). Kind of data set: Inhibition of NLRC4 inflammasome activation in C57 mouse BMDM cells assessed as reduction in caspase-1 maturation at 5 uM preincubated with LPS for 3 hrs followed by Salmonella typhimurium stimulation for 2 hrs by Western blot analysis. In kind it is cell-based.
Data set [10] deals with NACHT, LRR and PYD domains-containing protein 3 (Mus musculus) (UniProt Q8R4B8). The experiment in a line: Inhibition of NLRP3 inflammasome activation in LPS/Nigericin induced C57 mouse BMDM cells assessed as reduction in […] preincubated with LPS for 3 hrs followed by compound addition for 30 mins prior to nigericin addition and measured after 30 mins by PI/Hoechst 33342 staining based analysis. The data set is classed as cell-based. Particulars: time 1.0 hrs.

A short description of data set [11]: Stability in human liver microsomes assessed as intrinsic clearance at 1.5 uM measured upto 45 mins in presence of NADPH by LC-MS/MS analysis. In kind it is ADME, Microsome. Particulars: read-out: CLH.
Data set [12] has as its target T1, Interferon-inducible protein AIM2 (Mus musculus) (UniProt Q91VJ1).
T1 sequence (whole entry): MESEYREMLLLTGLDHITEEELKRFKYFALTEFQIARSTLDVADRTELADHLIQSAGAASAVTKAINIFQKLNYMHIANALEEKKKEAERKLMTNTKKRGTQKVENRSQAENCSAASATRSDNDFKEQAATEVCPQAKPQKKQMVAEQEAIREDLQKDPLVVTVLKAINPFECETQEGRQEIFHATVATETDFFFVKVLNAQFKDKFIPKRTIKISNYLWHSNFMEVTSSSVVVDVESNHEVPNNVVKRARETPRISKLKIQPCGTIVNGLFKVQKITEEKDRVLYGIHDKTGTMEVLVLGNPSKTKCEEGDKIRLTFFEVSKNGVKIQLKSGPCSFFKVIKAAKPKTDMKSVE
Kind of data set: Inhibition of AIM2 inflammasome activation in C57 mouse BMDM cells assessed as reduction in IL-1beta secretion at 5 uM preincubated with LPS for 3 hrs followed by poly(dA:dT) stimulation for 4 hrs by Western blot analysis. In kind it is cell-based.

In data set [13] the target is NACHT, LRR and PYD domains-containing protein 3 (Homo sapiens, UniProt Q96P20). Kind of data set: Inhibition of NLRP3 inflammasome activation in PMA-differentiated human THP-1 cells assessed as reduction in IL-1beta secretion pre-stimulated with PMA for 24 hrs followed by compound addition and measured after 30 mins by ELISA. In kind it is cell-based.
Data set [14] addresses NACHT, LRR and PYD domains-containing protein 3 (Mus musculus) (UniProt Q8R4B8). The experiment in a line: Binding affinity to NLRP3 in mouse J774.A1 cells assessed as reduction in NLRP3 degradation incubated for 1 hrs at 48 to 81 degreeC by CETSA based Western blot analysis. In kind it is cell-based.
Data set [15] shares this target. The experiment in a line: Inhibition of NLRP3 inflammasome activation in C57 mouse BMDM cells assessed as reduction in caspase-1 activation at 5 uM preincubated with LPS for 3 hrs followed by compound addition for 30 mins prior to nigericin addition and measured after 30 mins by Western blot analysis. In kind it is cell-based. Particulars: time 1.0 hrs.
For data set [16] the target is unchanged. Kind of data set: Inhibition of NLRP3 inflammasome activation in LPS/Nigericin induced C57 mouse BMDM cells assessed as reduction in NEK7 expression in cell supernatant at 2.5 to 10 uM preincubated with LPS for 3 hrs followed by compound addition for 30 mins prior to nigericin addition and measured after 30 mins by Western blot analysis. The data set is classed as cell-based. The note with it: dose 2.5-10 µM, time 1.0 hrs.

The target is the same in data set [17]. The experiment in a line: Inhibition of NLRP3 inflammasome activation in LPS/Nigericin induced C57 mouse BMDM cells assessed as reduction in pro-IL-1beta expression in cell supernatant at 2.5 to 10 uM preincubated with LPS for 3 hrs followed by compound addition for 30 mins prior to nigericin addition and measured after 30 mins by Western blot analysis. In kind it is cell-based. Particulars: dose 2.5-10 µM, time 1.0 hrs.

For a further data set, the system named is HEK-293T. Kind of data set: Cytotoxicity against HEK293T cells assessed as reduction in cell viability upto 50 uM incubated for 24 hrs by CCK8 assay. The data set is classed as toxicity, cell-based. The note with it: human.
Another data set concerns L02. Kind of data set: Cytotoxicity against human L02 cells assessed as reduction in cell viability upto 50 uM incubated for 24 hrs by CCK8 assay. The data set is classed as toxicity, cell-based. Particulars: l02, 24 h.
Data set [18] is described as follows: Stability in human liver microsomes assessed as half-life at 1.5 uM measured upto 45 mins in presence of NADPH by LC-MS/MS analysis. In kind it is ADME, Microsome.

The text below walks through data of ChEMBL document CHEMBL5634101, “Discovery of NLRP3 inhibitors using machine learning: Identification of a hit compound to treat NLRP3 activation-driven diseases” (Eur J Med Chem, 2023).

Activity calls are given as the source filed them. No cut-off for these calls is given here.

NACHT, LRR and PYD domains-containing protein 3 (Mus musculus), sequence (Q8R4B8 whole entry, the tested form may be a part): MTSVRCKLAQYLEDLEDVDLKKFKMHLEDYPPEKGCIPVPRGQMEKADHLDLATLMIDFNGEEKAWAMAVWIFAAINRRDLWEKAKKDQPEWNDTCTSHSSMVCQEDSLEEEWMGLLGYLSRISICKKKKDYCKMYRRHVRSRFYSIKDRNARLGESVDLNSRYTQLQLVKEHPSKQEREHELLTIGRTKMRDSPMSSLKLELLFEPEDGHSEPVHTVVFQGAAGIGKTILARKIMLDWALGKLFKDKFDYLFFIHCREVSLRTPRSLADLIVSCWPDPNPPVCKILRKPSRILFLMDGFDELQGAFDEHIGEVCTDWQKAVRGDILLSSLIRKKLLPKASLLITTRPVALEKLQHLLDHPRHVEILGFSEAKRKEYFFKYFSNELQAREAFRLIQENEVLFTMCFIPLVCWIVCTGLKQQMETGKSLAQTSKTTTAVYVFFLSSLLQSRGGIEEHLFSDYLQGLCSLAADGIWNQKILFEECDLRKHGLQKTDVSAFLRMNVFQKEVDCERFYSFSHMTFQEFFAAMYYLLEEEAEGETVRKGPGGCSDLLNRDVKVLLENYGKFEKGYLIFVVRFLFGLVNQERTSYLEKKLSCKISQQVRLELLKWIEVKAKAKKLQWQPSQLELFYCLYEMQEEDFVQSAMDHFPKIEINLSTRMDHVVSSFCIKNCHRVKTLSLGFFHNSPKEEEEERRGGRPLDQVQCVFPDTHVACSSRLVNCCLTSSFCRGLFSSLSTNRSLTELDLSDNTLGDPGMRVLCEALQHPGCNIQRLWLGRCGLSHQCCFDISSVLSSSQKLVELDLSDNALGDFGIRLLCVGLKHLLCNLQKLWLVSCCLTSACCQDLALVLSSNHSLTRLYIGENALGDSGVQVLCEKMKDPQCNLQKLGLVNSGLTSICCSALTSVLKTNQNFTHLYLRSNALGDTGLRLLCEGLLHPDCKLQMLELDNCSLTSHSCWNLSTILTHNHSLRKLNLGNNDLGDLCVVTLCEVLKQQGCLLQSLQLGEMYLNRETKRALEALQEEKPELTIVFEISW
NLR family CARD domain-containing protein 4 (Mus musculus), sequence (Q3UP24 whole entry, the tested form may be a part): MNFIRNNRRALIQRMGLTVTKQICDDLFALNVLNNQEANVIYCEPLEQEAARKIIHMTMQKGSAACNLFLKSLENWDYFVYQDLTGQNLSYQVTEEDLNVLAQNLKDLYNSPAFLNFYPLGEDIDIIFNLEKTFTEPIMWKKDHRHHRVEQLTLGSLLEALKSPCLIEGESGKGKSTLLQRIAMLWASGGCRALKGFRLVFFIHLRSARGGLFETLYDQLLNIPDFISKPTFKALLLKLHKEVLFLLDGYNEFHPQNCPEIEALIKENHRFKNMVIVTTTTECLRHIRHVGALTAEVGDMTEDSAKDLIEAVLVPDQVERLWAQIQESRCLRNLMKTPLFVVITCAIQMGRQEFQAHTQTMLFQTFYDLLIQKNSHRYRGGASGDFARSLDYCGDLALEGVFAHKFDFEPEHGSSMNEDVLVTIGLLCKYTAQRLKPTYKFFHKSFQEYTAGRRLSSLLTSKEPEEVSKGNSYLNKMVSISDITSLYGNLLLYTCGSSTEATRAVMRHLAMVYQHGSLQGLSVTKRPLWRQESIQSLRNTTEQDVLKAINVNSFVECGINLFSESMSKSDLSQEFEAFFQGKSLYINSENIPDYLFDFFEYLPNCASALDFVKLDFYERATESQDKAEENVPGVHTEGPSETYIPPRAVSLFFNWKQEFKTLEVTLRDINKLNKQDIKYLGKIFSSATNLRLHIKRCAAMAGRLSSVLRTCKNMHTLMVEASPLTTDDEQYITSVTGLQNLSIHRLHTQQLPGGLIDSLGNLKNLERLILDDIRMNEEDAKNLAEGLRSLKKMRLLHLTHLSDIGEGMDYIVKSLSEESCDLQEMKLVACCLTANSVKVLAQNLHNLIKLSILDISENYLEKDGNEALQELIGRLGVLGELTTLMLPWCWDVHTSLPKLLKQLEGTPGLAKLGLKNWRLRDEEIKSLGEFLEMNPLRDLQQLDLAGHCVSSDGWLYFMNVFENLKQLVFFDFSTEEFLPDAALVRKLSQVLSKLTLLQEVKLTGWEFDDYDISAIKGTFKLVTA
NACHT, LRR and PYD domains-containing protein 3, sequence (Q96P20 whole entry, the tested form may be a part): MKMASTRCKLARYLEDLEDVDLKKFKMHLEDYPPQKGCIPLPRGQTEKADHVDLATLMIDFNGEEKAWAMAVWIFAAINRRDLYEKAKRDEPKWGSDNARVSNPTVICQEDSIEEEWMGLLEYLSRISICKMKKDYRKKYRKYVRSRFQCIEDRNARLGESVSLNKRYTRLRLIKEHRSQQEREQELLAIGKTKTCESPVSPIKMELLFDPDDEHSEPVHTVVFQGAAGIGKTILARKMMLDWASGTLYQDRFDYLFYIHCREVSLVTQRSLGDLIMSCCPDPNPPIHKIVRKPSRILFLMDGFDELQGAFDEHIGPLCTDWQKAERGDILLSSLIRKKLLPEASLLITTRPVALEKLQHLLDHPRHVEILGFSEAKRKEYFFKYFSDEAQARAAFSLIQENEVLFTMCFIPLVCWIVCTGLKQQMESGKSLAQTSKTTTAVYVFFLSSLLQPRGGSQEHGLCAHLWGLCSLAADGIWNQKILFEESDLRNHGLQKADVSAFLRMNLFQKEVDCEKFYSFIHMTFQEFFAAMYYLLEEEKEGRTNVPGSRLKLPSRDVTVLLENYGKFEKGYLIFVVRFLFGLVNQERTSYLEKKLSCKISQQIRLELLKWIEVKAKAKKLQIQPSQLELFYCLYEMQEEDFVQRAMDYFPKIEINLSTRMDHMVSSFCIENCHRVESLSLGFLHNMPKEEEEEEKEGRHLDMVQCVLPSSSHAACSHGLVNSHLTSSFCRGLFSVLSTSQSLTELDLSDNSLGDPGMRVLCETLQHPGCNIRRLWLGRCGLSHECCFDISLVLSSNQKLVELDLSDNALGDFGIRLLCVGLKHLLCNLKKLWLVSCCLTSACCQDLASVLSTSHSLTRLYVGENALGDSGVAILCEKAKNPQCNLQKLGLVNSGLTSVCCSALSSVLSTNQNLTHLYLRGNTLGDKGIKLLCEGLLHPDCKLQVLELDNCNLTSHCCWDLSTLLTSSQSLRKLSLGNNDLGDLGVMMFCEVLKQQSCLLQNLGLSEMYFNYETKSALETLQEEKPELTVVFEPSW

As for `COc1ccc(N2C(=O)/C(=C\c3ccccc3C(F)(F)F)SC2=S)cc1`, the inhibition entry in data set [1], in data set [4], in [6], in data set [8], in data set [10] and in [15] was “Active” each time. The Activity entry was “Dose-Dependent Effect” in the data set on Mus musculus [2], “Non-Toxic” with HEK-293T and “Non-Toxic” in the data set with L02. In addition, the inhibition result in data set [3], in data set [7], in [9], in data set [12], in [16] and in [17] was “inactive” throughout. Also, the outcome (in the data set with Mus musculus [5]; in data set [14]) was Active. Moreover, the CLint scaled at 1.5 µM in data set [11] is 11.2 mL/min/kg. Also, the IC50 in data set [13] stood at 2300 nM. The half-life at 1.5 µM in [18] is 2.07 h.
